#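 Cells were grown in 96-well plates and exposed to each compound for 48 hours at five concentrations; endpoints were interpolated linearly between bracketing concentrations, or set to the highest concentration if not reached. At the TGI there is no net growth.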
# Experiments:
# Test in all cases: NCI-60 cell line screen, 48 h
# RXF 393 renal = system: RXF 393 renal
# UO-31 renal = system: UO-31 renal
# CAKI-1 renal = system: CAKI-1 renal
# OVCAR-3 ovarian = system: OVCAR-3 ovarian
# SK-MEL-2 melanoma = system: SK-MEL-2 melanoma
# U251 CNS = system: U251 CNS
# MDA-MB-435 = system: MDA-MB-435
# HL-60(TB) leukemia = system: HL-60(TB) leukemia
# MDA-MB-231 breast = system: MDA-MB-231 breast
# NCI-H23 lung = system: NCI-H23 lung
# NCI-H522 lung = system: NCI-H522 lung
# A549 NSCLC = system: A549 NSCLC
# SW-620 colon = system: SW-620 colon
# NCI/ADR-RES ovarian = system: NCI/ADR-RES ovarian
# K-562 leukemia = system: K-562 leukemia
# SF-539 CNS = system: SF-539 CNS
# OVCAR-4 ovarian = system: OVCAR-4 ovarian
# SN12C renal = system: SN12C renal
# OVCAR-8 ovarian = system: OVCAR-8 ovarian
# COLO 205 colon = system: COLO 205 colon
# CCRF-CEM leukemia = system: CCRF-CEM leukemia
# NCI-H460 lung = system: NCI-H460 lung
# DU-145 prostate = system: DU-145 prostate
# KM12 colon = system: KM12 colon
# M14 melanoma = system: M14 melanoma
# HCT-15 colon = system: HCT-15 colon
# SNB-75 CNS = system: SNB-75 CNS
# IGROV1 ovarian = system: IGROV1 ovarian
# SF-295 CNS = system: SF-295 CNS
# MDA-N = system: MDA-N
# PC-3 prostate = system: PC-3 prostate
# EKVX NSCLC = system: EKVX NSCLC
# T-47D breast = system: T-47D breast
# HT29 colon = system: HT29 colon
# HS 578T breast = system: HS 578T breast
# SNB-19 CNS = system: SNB-19 CNS
# OVCAR-5 ovarian = system: OVCAR-5 ovarian
# TK-10 renal = system: TK-10 renal
# SK-MEL-5 melanoma = system: SK-MEL-5 melanoma
# SF-268 CNS = system: SF-268 CNS
# 786-0 renal = system: 786-0 renal
# RPMI-8226 leukemia = system: RPMI-8226 leukemia
# HOP-62 NSCLC = system: HOP-62 NSCLC
# HOP-92 NSCLC = system: HOP-92 NSCLC
# SK-MEL-28 melanoma = system: SK-MEL-28 melanoma
# A498 renal = system: A498 renal
# NCI-H226 lung = system: NCI-H226 lung
# ACHN renal = system: ACHN renal
# UACC-257 melanoma = system: UACC-257 melanoma
# SK-OV-3 ovarian = system: SK-OV-3 ovarian
# MOLT-4 leukemia = system: MOLT-4 leukemia
# MCF7 breast = system: MCF7 breast
# BT-549 breast = system: BT-549 breast
# HCT-116 colon = system: HCT-116 colon
# HCC-2998 colon = system: HCC-2998 colon
# MALME-3M melanoma = system: MALME-3M melanoma
# SR leukemia = system: SR leukemia
# LOX IMVI melanoma = system: LOX IMVI melanoma
# UACC-62 melanoma = system: UACC-62 melanoma
smiles,measurement,setting,value
NS(=O)(=O)c1ccc(N=Nc2ccc(O)cc2)cc1,TGI,RXF 393 renal,> 100 µM
same,TGI,UO-31 renal,> 100 µM
same,TGI,CAKI-1 renal,> 100 µM
same,TGI,OVCAR-3 ovarian,> 100 µM
same,TGI,SK-MEL-2 melanoma,> 100 µM
same,TGI,U251 CNS,> 100 µM
same,TGI,MDA-MB-435,> 100 µM
same,TGI,HL-60(TB) leukemia,> 100 µM
same,TGI,MDA-MB-231 breast,> 100 µM
same,TGI,NCI-H23 lung,> 100 µM
same,TGI,NCI-H522 lung,> 100 µM
same,TGI,A549 NSCLC,> 100 µM
same,TGI,SW-620 colon,> 100 µM
same,TGI,NCI/ADR-RES ovarian,> 100 µM
same,TGI,K-562 leukemia,> 100 µM
same,TGI,SF-539 CNS,> 100 µM
same,TGI,OVCAR-4 ovarian,> 100 µM
same,TGI,SN12C renal,> 100 µM
same,TGI,OVCAR-8 ovarian,> 100 µM
same,TGI,COLO 205 colon,> 100 µM
same,TGI,CCRF-CEM leukemia,> 100 µM
same,TGI,NCI-H460 lung,> 100 µM
same,TGI,DU-145 prostate,> 100 µM
same,TGI,KM12 colon,> 100 µM
same,TGI,M14 melanoma,> 100 µM
same,TGI,HCT-15 colon,> 100 µM
same,TGI,SNB-75 CNS,88.9 µM
same,TGI,IGROV1 ovarian,> 100 µM
same,TGI,SF-295 CNS,> 100 µM
same,TGI,MDA-N,> 100 µM
same,TGI,PC-3 prostate,> 100 µM
same,TGI,EKVX NSCLC,> 100 µM
same,TGI,T-47D breast,> 100 µM
same,TGI,HT29 colon,> 100 µM
same,TGI,HS 578T breast,> 100 µM
same,TGI,SNB-19 CNS,> 100 µM
same,TGI,OVCAR-5 ovarian,> 100 µM
same,TGI,TK-10 renal,> 100 µM
same,TGI,SK-MEL-5 melanoma,> 100 µM
same,TGI,SF-268 CNS,> 100 µM
same,TGI,786-0 renal,> 100 µM
same,TGI,RPMI-8226 leukemia,> 100 µM
same,TGI,HOP-62 NSCLC,> 100 µM
same,TGI,HOP-92 NSCLC,> 100 µM
same,TGI,SK-MEL-28 melanoma,> 100 µM
same,TGI,A498 renal,> 100 µM
same,TGI,NCI-H226 lung,89.1 µM
same,TGI,ACHN renal,> 100 µM
same,TGI,UACC-257 melanoma,> 100 µM
same,TGI,SK-OV-3 ovarian,> 100 µM
same,TGI,MOLT-4 leukemia,> 100 µM
same,TGI,MCF7 breast,> 100 µM
same,TGI,BT-549 breast,62.5 µM
same,TGI,HCT-116 colon,> 100 µM
same,TGI,HCC-2998 colon,> 100 µM
same,TGI,MALME-3M melanoma,> 100 µM
same,TGI,SR leukemia,> 100 µM
same,TGI,LOX IMVI melanoma,> 100 µM
CCOc1cc2c(cc1O)C=C[C@@H]1[C@@H]2CC[C@]2(C)[C@@H](O)CC[C@@H]12,TGI,RXF 393 renal,> 96.1 µM
same,TGI,UO-31 renal,> 86.1 µM
same,TGI,CAKI-1 renal,28.9 µM
same,TGI,OVCAR-3 ovarian,6.74 µM
same,TGI,SK-MEL-2 melanoma,42 µM
same,TGI,U251 CNS,> 38.3 µM
same,TGI,MDA-MB-435,1.36 µM
same,TGI,HL-60(TB) leukemia,7.58 µM
same,TGI,MDA-MB-231 breast,28.9 µM
same,TGI,NCI-H23 lung,> 48.1 µM
same,TGI,NCI-H522 lung,7.3 µM
same,TGI,A549 NSCLC,> 100 µM
same,TGI,SW-620 colon,> 35.3 µM
same,TGI,NCI/ADR-RES ovarian,12.8 µM
same,TGI,K-562 leukemia,> 100 µM
same,TGI,SF-539 CNS,7.03 µM
same,TGI,OVCAR-4 ovarian,> 100 µM
same,TGI,SN12C renal,> 77.3 µM
same,TGI,OVCAR-8 ovarian,> 62.4 µM
same,TGI,COLO 205 colon,47.2 µM
same,TGI,CCRF-CEM leukemia,> 42.5 µM
same,TGI,NCI-H460 lung,12.5 µM
same,TGI,DU-145 prostate,26.8 µM
same,TGI,KM12 colon,20.9 µM
same,TGI,M14 melanoma,28 µM
same,TGI,HCT-15 colon,20.1 µM
same,TGI,SNB-75 CNS,> 58.6 µM
same,TGI,IGROV1 ovarian,> 75.1 µM
same,TGI,SF-295 CNS,5.45 µM
same,TGI,MDA-N,> 100 µM
same,TGI,PC-3 prostate,> 100 µM
same,TGI,EKVX NSCLC,> 100 µM
same,TGI,T-47D breast,77.4 µM
same,TGI,HT29 colon,24.3 µM
same,TGI,HS 578T breast,> 100 µM
same,TGI,SNB-19 CNS,> 55.4 µM
same,TGI,OVCAR-5 ovarian,> 100 µM
same,TGI,TK-10 renal,> 92 µM
same,TGI,SK-MEL-5 melanoma,23.6 µM
same,TGI,SF-268 CNS,> 100 µM
same,TGI,786-0 renal,> 43.4 µM
same,TGI,RPMI-8226 leukemia,> 100 µM
same,TGI,HOP-62 NSCLC,49.3 µM
same,TGI,HOP-92 NSCLC,> 100 µM
same,TGI,SK-MEL-28 melanoma,> 100 µM
same,TGI,A498 renal,57.9 µM
same,TGI,NCI-H226 lung,56.9 µM
same,TGI,ACHN renal,> 100 µM
same,TGI,UACC-257 melanoma,> 100 µM
same,TGI,UACC-62 melanoma,> 43.1 µM
same,TGI,SK-OV-3 ovarian,> 70.2 µM
same,TGI,MOLT-4 leukemia,73.1 µM
same,TGI,MCF7 breast,> 75.8 µM
same,TGI,BT-549 breast,> 100 µM
same,TGI,HCT-116 colon,16 µM
same,TGI,HCC-2998 colon,18.7 µM
same,TGI,MALME-3M melanoma,35.6 µM
same,TGI,SR leukemia,23.7 µM
same,TGI,LOX IMVI melanoma,30.4 µM

# Source: PubChem BioAssay (NCI)
